Key:
[1] = system: human lymphoma cell line RAMOS cells; experiment: Cell growth inhibition test using RAMOS cell, ATP assay (CellTiter-Glo); type: cell-based; conditions: Homo sapiens, Ramos, 72 h, cultured 3 days, 50% growth inhibition concentration
Experimental: A cell growth inhibition test was carried out by treating human lymphoma cell line RAMOS cells with a test compound for a given period and then counting the number of viable cells by MTT assay or CellTiter-Glo Luminescent Cell Viability Assay (manufactured by Promega Corp.; hereinafter, referred to as ATP assay).
RAMOS cells were inoculated at 4000 cells/40 μL/well to a 384-well plate containing the compound prepared in advance at predetermined concentrations. The cells thus inoculated were cultured at 37° C. for 3 days under 5% CO2. In order to measure a cell survival rate, CellTiter-Glo Reagent was added in an amount corresponding to 1/4 of the amount of the culture solution at the day of cell inoculation and at the final culture date and stirred at room temperature for 2 minutes. Then, luminescence intensity was measured using a plate reader. The cell survival rate was calculated according to the expression given below.
The number of viable cells and luminescence intensity have been confirmed to correlate with each other. Therefore, the rate of cell growth was calculated according to the following expression: Rate of cell growth (T/C %) of a test compound-supplemented well=100×[(B−C)/(A−C)] wherein A represents the luminescence intensity (final culture date) of a test compound-free well; B represents the luminescence intensity (final culture date) of a test compound-containing well; and C represents the luminescence intensity (day of cell inoculation) of a well at the start of contact of the cells with the test compound.
T/C % at each concentration of the test compound was determined. The concentration at which the test compound offered 50% growth rate was calculated as a GI50 value from the growth rates at two points interpolating 50% and the concentrations, and is shown in Table 56.

TIP48/TIP49 complex = biological target: T1, TIP48/TIP49 complex (Homo sapiens, UniProt Q9Y230+Q9Y265); experiment: ATPase assay of TIP48/TIP49 complex (ADP-Glo); type: biochemical; conditions: concentration at which the ATPase activity was inhibited by 50%
T1 construct: made in house; host or cells: E. coli
T1 sequence (Q9Y230 whole entry): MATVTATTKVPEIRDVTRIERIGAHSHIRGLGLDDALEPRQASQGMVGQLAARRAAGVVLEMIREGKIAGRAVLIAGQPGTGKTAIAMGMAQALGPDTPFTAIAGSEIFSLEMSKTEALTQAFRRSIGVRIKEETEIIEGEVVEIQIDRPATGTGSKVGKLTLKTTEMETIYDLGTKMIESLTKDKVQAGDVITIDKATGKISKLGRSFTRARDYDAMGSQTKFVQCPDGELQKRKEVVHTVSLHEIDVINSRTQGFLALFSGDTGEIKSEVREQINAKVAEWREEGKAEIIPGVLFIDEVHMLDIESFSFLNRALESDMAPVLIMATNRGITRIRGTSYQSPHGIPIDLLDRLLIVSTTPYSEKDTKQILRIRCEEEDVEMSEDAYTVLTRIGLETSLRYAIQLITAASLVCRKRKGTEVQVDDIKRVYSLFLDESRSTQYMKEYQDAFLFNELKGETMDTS
T1 sequence (Q9Y265 whole entry): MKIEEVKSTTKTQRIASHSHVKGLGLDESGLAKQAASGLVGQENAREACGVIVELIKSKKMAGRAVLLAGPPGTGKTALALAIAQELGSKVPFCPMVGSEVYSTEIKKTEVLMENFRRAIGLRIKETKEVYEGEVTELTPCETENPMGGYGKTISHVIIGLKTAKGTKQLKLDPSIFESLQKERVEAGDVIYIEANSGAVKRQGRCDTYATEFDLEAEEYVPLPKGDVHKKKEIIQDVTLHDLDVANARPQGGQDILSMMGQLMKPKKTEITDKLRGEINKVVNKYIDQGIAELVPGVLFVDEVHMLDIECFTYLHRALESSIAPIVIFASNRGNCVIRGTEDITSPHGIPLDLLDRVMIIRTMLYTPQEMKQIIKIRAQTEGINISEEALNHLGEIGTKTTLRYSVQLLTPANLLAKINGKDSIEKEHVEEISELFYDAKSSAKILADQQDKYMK
Text: The ATPase activity of the TIP48/TIP49 complex can be measured by use of an ATPase assay described below in Test Examples 1 and 2. The ATPase activity of the TIP48/TIP49 complex can be measured, as described below in the Test Examples, for example, by using recombinant human TIP48 and TIP49 proteins (hereinafter, referred to as rTIP48 and rTIP49) and ATP in the presence or absence of a test compound and measuring the amount of ADP formed through hydrolysis by the ATPase activity of the TIP48/TIP49 complex, using ADP-Glo. Alternatively, the ATPase activity of the TIP48/TIP49 complex can be measured by a method described in, for example, J. Mol. Biol. 366, 172-179 (2007).
An ATPase assay of a TIP48/TIP49 complex was conducted using rTIP48 and rTIP49. Human TIP48 and TIP49 DNAs were purchased from Open Biosystems. Human TIP48 and TIP49 cDNAs cloned by PCR using the purchased DNAs were each integrated into plasmids for expression in E. coli and expressed in E. coli to obtain rTIP48 and rTIP49.
A test compound was dissolved at 10 mM using DMSO. The solution was diluted to 10 concentrations as 4-fold serial dilutions from 10 mM using DMSO.
A 2×assay buffer (100 mM Tris-HCl, pH 7.5, 100 mM NaCl, 40 mM MgCl2, 2 mM DTT, 20 μM ATP, and 0.2 mg/mL BSA) was dispensed at 24.5 μL/well to a 384-well assay plate.
Test compound solutions were dispensed thereto at 1 μL/well. Subsequently, the solution in each well was mixed using a plate mixer.
rTIP48 and rTIP49 were diluted to a concentration of 50 μg/mL using sterilized water. The diluted solution was dispensed at 24.5 μL/well to the 384-well assay plate. Subsequently, the solution in each well was mixed using a plate mixer (final concentration: 24.5 μg/mL) (concentration of each test compound solution: 200 μM, 50 μM, 12.5 μM, 3.12 μM, 0.78 μM, 0.20 μM, 0.049 μM, 0.012 μM, 0.003 μM, and 0.0007 μM; DMSO concentration: 2%).
After the mixing using the plate mixer, the assay plate was left standing at room temperature for 1.5 hours.
5 μL of the solution in each well was transferred to a white assay plate, and ADP-Glo Reagent from ADP-Glo Kinase Assay (Promega Corp., catalog No. V9101) was dispensed thereto at 5 μL/well. After completion of the reaction, the plate was left standing at room temperature for 40 minutes. Kinase Detection Reagent was further dispensed thereto at 5 μL/well, and the plate was left standing at room temperature for 30 minutes. Then, luminescence intensity was measured using a plate reader.
The ATPase inhibitory activity was calculated according to the expression given below.
The luminescence intensity of a well supplemented with the test compound and the TIP48/TIP49 complex was defined as A. The luminescence intensity of a well supplemented with only the TIP48/TIP49 complex was defined as B. The luminescence intensity of a well supplemented with neither the test compound nor the TIP48/TIP49 complex was defined as C. The ratio between the test compound-supplemented group and the test compound-nonsupplemented group (T/C value) was determined according to the following calculation expression:
The dose-response curve was calculated using GraphPad Prism 4 from the concentration of each of the serially diluted test compounds and the ATPase inhibitory activity (%) at this concentration.

Which GI50 [1] does the source give for `COCOc1ccc(Cl)cc1C(=O)NCC(C)(C)CC(=O)Nc1c(CCN(C)C)n(C)n(-c2ccccc2)c1=O` [Example 28, 5-Chloro-N-[4-({5-[2-(dimethylamino)ethyl]1-methyl-3-oxo-2-phenyl-2,3-dihydro-1H-pyrazol-4-yl}amino)-2,2-dimethyl-4-oxobutyl]-2-(methoxymethoxy)benzamide] here?
Its GI50 is 200 nM.

And the IC50 (TIP48/TIP49 complex)?
Its IC50 is 48 nM.

`CCOc1ccc(Cl)cc1C(=O)NCC(C)(C)CC(=O)Nc1c(CC(C)(C)NC)n(C)n(-c2ccccc2)c1=O` [Example 59, 5-Chloro-N-[2,2-dimethyl-4-({1-methyl-5-[2-methyl-2-(methylamino)propyl]-3-oxo-2-phenyl-2,3-dihydro-1H-pyrazol-4-yl}amino)-4-oxobutyl]-2-ethoxybenzamide] was tested. Which GI50 [1] did it give?
The GI50 was 150 nM.

What about the IC50 (TIP48/TIP49 complex) of the same compound?
Its IC50 is 34 nM.

`CCOc1cc(F)c(Cl)cc1C(=O)NCC(C)(C)CC(=O)Nc1c([C@@H](C)OC)n(C)n(-c2ccccc2)c1=O` [Example 124, 5-Chloro-2-ethoxy-4-fluoro-N-(4-{[5-((1R)-1-methoxyethyl)-1-methyl-3-oxo-2-phenyl-2,3-dihydro-1H-pyrazol-4-yl]amino}-2,2-dimethyl-4-oxobutyl)benzamide] was tested. Which GI50 [1] did it give?
The GI50 was 140 nM.

And the IC50 (TIP48/TIP49 complex)?
Its IC50 is 38 nM.

For `Cc1cc2cc(Cl)cc(C(=O)NCC(C)(C)CC(=O)Nc3c(C[C@H](C)N(C)C)n(C)n(-c4ccccc4)c3=O)c2o1` [Example 54, 5-Chloro-N-[4-({5-[(2S)-2-(dimethylamino)propyl]-1-methyl-3-oxo-2-phenyl-2,3-dihydro-1H-pyrazol-4-yl}amino)-2,2-dimethyl-4-oxobutyl]-2-methylbenzofuran-7-carboxamide], which GI50 [1] is on record?
The GI50 was 140 nM.

And the IC50 (TIP48/TIP49 complex)?
The IC50 was 94 nM.

`Cc1cc2cc(Cl)cc(C(=O)NCC(C)(C)CC(=O)Nc3c(CC(C)(C)N)n(C)n(-c4ccccc4)c3=O)c2o1` [Example 58, N-(4-{[5-(2-amino-2-methylpropyl)-1-methyl-3-oxo-2-phenyl-2,3-dihyro-1H-pyrazol-4-yl]amino}-2,2-dimethyl-4-oxobutyl)-5-chloro-2-methylbenzofuran-7-carboxamide] was tested. Which GI50 [1] did it give?
The GI50 was 110 nM.

And the IC50 (TIP48/TIP49 complex)?
Its IC50 is 58 nM.

What does the source list for `CCOc1ccc(Cl)cc1C(=O)NCC(CF)(CF)CC(=O)Nc1c(COC)n(C)n(-c2ccccc2)c1=O` [Example 148, N-(2,2-Bis(fluoromethyl)-4-{[5-(methoxymethyl)-1-methyl-3-oxo-2-phenyl-2,3-dihydro-1H-pyrazol-4-yl]amino}-4-oxobutyl)-5-chloro-2-ethoxybenzamide]?
GI50 [1]: 230 nM; IC50 (TIP48/TIP49 complex): 83 nM

`CCOc1cc(F)c(Cl)cc1C(=O)NCC(C)(C)CC(=O)Nc1c(C[C@H](C)N(C)C)n(C)n(-c2ccccc2)c1=O` [Example 52, 5-Chloro-N-[4-({5-[(2S)-2-(dimethylamino)propyl]-1-methyl-3-oxo-2-phenyl-2,3-dihydro-1H-pyrazol-4-yl}amino)-2,2-dimethyl-4-oxobutyl]-2-ethoxy-4-fluorobenzamide] was tested. Which GI50 [1] did it give?
The GI50 was 120 nM.

What about the IC50 (TIP48/TIP49 complex) of the same compound?
Its IC50 is 36 nM.

`CCOc1cc(F)c(Cl)cc1C(=O)NCC(C)(C)CC(=O)Nc1c(CCNCC(F)(F)F)n(C)n(-c2ccccc2)c1=O` [Example 27, 5-Chloro-N-[2,2-dimethyl-4-({1-methyl-3-oxo-2-phenyl-5-[2-(2,2,2-trifluoroethylamino)ethyl]-2,3-dihydro-1H-pyrazol-4-yl}amino)-4-oxobutyl]-2-ethoxy-4-fluorobenzamide] was tested. Which GI50 [1] did it give?
The GI50 was 130 nM.

And the IC50 (TIP48/TIP49 complex)?
Its IC50 is 48 nM.

For `CCOc1ncc(Cl)cc1NC(=O)CC(C)(C)CC(=O)Nc1c(C(C)OC)n(C)n(-c2ccccc2)c1=O` (centres unmarked) [Example 126, N-(5-Chloro-2-ethoxy-3-pyridyl)-N′-[5-(1-methoxyethyl)-1-methyl-3-oxo-2-phenyl-2,3-dihydro-1H-pyrazol-4-yl]-3,3-dimethylpentanediamide], which GI50 [1] is on record?
Its GI50 is 580 nM.

What about the IC50 (TIP48/TIP49 complex) of the same compound?
The IC50 was 56 nM.

Which GI50 [1] does the source give for `CCOc1ccc(Cl)cc1NC(=O)CC1(CC(=O)Nc2c(CCN(C)C)n(C)n(-c3ccccc3)c2=O)CCCC1` [Example 32, N-(5-chloro-2-ethoxyphenyl)-2-{1-[2-({5-[2-(dimethylamino)ethyl]-1-methyl-3-oxo-2-phenyl-2,3-dihydro-1H-pyrazol-4-yl}amino)-2-oxoethyl]cyclopentyl}acetamide] here?
The GI50 was 1300 nM.

And the IC50 (TIP48/TIP49 complex)?
The IC50 was 130 nM.

`CCOc1cc(F)c(Cl)cc1C(=O)NCC(C)(C)CC(=O)Nc1c(C)n(C)n(-c2ccccc2)c1=O` [Example 92, 5-Chloro-N-{4-[(1,5-dimethyl-3-oxo-2-phenyl-2,3-dihydro-1H-pyrazol-4-yl)amino]-2,2-dimethyl-4-oxobutyl}-2-ethoxy-4-fluorobenzamide] was tested. Which GI50 [1] did it give?
Its GI50 is 560 nM.

And the IC50 (TIP48/TIP49 complex)?
The IC50 was 26 nM.

Which GI50 [1] does the source give for `CCOc1ccc(Cl)cc1C(=O)NCC(C)(C)CC(=O)Nc1c(CCCC(=O)N(C)C)n(C)n(-c2ccccc2)c1=O` [Example 129, 5-Chloro-N-[4-({5-[4-(dimethylamino)-4-oxobutyl]-1-methyl-3-oxo-2-phenyl-2,3-dihydro-1H-pyrazol-4-yl}amino)-2,2-dimethyl-4-oxobutyl]-2-ethoxybenzamide] here?
Its GI50 is 190 nM.

What about the IC50 (TIP48/TIP49 complex) of the same compound?
The IC50 was 52 nM.

With `COCc1cc2cc(Cl)cc(C(=O)NCC(C)(C)CC(=O)Nc3c(CCN(C)C)n(C)n(-c4ccccc4)c3=O)c2o1` [Example 15, 5-Chloro-N-[4-({5-[2-(dimethylamino)ethyl]-1-methyl-3-oxo-2-phenyl-2,3-dihydro-1H-pyrazol-4-yl}amino)-2,2-dimethyl-4-oxobutyl]-2-(methoxymethyl)benzofuran-7-carboxamide] as the compound, how does the GI50 [1] read?
Its GI50 is 570 nM.

And the IC50 (TIP48/TIP49 complex)?
Its IC50 is 76 nM.

Which GI50 [1] does the source give for `CCOc1ccc(Cl)cc1C(=O)NCC(C)(C)CC(=O)Nc1c(CC(C)(C)N(C)C)n(C)n(-c2ccccc2)c1=O` [Example 56, 5-Chloro-N-[4-({5-[2-(dimethylamino)-2-methylpropyl]-1-methyl-3-oxo-2-phenyl-2,3-dihydro-1H-pyrazol-4-yl}amino)-2,2-dimethyl-4-oxobutyl]-2-ethoxybenzamide] here?
The GI50 was 120 nM.

What about the IC50 (TIP48/TIP49 complex) of the same compound?
The IC50 was 40 nM.

What does the source list for `CCOc1cc(F)c(Cl)cc1C(=O)NCC(C)(C)CC(=O)Nc1c(C(C)OC)n(C)n(-c2ccccc2)c1=O` (centres unmarked) [Example 122, 5-Chloro-2-ethoxy-4-fluoro-N-(4-{[5-(1-methoxyethyl)-1-methyl-3-oxo-2-phenyl-2,3-dihydro-1H-pyrazol-4-yl]amino}-2,2-dimethyl-4-oxobutyl)benzamide]?
GI50 [1]: 140 nM; IC50 (TIP48/TIP49 complex): 460 nM

`Cc1cc2cc(Cl)cc(C(=O)NCC(C)(C)CC(=O)Nc3c(CCN(C)C)n(C)n(-c4ccccc4F)c3=O)c2o1` [Example 46, 5-Chloro-N-[4-({3-[2-(dimethylamino)ethyl]-1-(2-fluorophenyl)-2-methyl-5-oxo-1,5-dihydro-1H-pyrazol-4-yl}amino)-2,2-dimethyl-4-oxobutyl]-2-methylbenzofuran-7-carboxamide] was tested. Which GI50 [1] did it give?
The GI50 was 470 nM.

And the IC50 (TIP48/TIP49 complex)?
The IC50 was 81 nM.
